Experimental data: patent publication US10781224B2, “Bis(oxymethyl)phosphinic acid and biogenic metal salts thereof as regulators of plant growth and development” (priority 2016, dated 2020)

Assays:
[1] = test system: winter wheat (Vershin variety); experiment: Winter wheat seed treatment with BHMPA salts: germination energy and germination rate; format: in vivo
Method in brief: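 Corn, winter wheat and rice seeds (50 per dish, on filter paper) were soaked for 1 h in BHMPA or its metal salts at 1·10^−6-1·10^−12%, with water as control. Germination energy was read on day 4 and germination rate on day 8 for wheat and day 7 for rice and corn, following GOST 12038-84, as the mean of four replicates.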

[2] = test system: corn (Krasnodar 385 MV variety); experiment: Corn seed treatment with BHMPA salts: germinating power; format: in vivo; settings: for Length, root / Length, root, + % to control / Length, sprout / Length, sprout, + % to control / Mass, dry, root / Mass, dry, root, + % to control / Mass, dry, sprout / Mass, dry, sprout, + % to control / Mass, wet, root / Mass, wet, root, + % to control / Mass, wet, sprout / Mass, wet, sprout, + % to control: corn seeds, zinc salt of BHMPA
Method in brief: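 Seeds (50 per Petri dish on two layers of filter paper) soaked 1 h in BHMPA or its Ca, Mg, Na, Co, Mn, Cu or Zn salts at 1·10^−6-1·10^−12%, with water controls. Germination energy read on day 4, germination on day 8 (wheat) or day 7 (rice, corn), as % means of four replicates. Germinating power taken as root and sprout length plus wet and dry mass per 100 seedlings.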

[3] = winter wheat Vershin, 1·10^−6% solution
[4] = winter wheat Vershin, 1·10^−7% solution
[5] = winter wheat Vershin, 1·10^−8% solution
[6] = winter wheat Vershin, 1·10^−9% solution
[7] = winter wheat Vershin, 1·10^−10% solution
[8] = winter wheat Vershin, 1·10^−11% solution
[9] = winter wheat Vershin, 1·10^−12% solution
[10] = winter wheat, comparative study vs Melaphen, 1·10^−9% solution
[11] = solution concentration 1 · 10^−6%
[12] = solution concentration 1 · 10^−7%
[13] = solution concentration 1 · 10^−8%
[14] = solution concentration 1 · 10^−9%

O=P([O-])(CO)CO.O=P([O-])(CO)CO.[Zn+2] [Zn-salt, Zinc BHMPA Salt]
Germination energy [1, 3]: 91.9% | Germination rate [1, 3]: 95.3% | Germination energy [1, 4]: 92.7% | Germination rate [1, 4]: 96.0% | Germination energy [1, 5]: 94.1% | Germination rate [1, 5]: 97.3% | Germination energy [1, 6]: 96.1% | Germination rate [1, 6]: 98.3% | Germination energy [1, 7]: 95.4% | Germination rate [1, 7]: 97.3% | Germination energy [1, 8]: 93.2% | Germination rate [1, 8]: 96.0% | Germination energy [1, 9]: 92.3% | Germination rate [1, 9]: 96.0% | Germination energy [1, 10]: 94.0% | Germination rate [1, 10]: 97.3% | optimum concentration for treating corn seeds before sowing ([2]; corn): 1·10^−8% | Length, root [2, 11]: 5.3 cm | Length, root, + % to control [2, 11]: 13% | Length, sprout [2, 11]: 3.4 cm | Length, sprout, + % to control [2, 11]: 3% | Mass, dry, root [2, 11]: 1.17 g/100 plantlings | Mass, dry, root, + % to control [2, 11]: 12.5% | Mass, dry, sprout [2, 11]: 0.97 g/100 plantlings | Mass, dry, sprout, + % to control [2, 11]: 13% | Mass, wet, root [2, 11]: 6.98 g/100 plantlings | Mass, wet, root, + % to control [2, 11]: 8.5% | Mass, wet, sprout [2, 11]: 5.99 g/100 plantlings | Mass, wet, sprout, + % to control [2, 11]: 5% | Length, root [2, 12]: 5.6 cm | Length, root, + % to control [2, 12]: 19% | Length, sprout [2, 12]: 3.5 cm | Length, sprout, + % to control [2, 12]: 6% | Mass, dry, root [2, 12]: 1.30 g/100 plantlings | Mass, dry, root, + % to control [2, 12]: 25% | Mass, dry, sprout [2, 12]: 1.10 g/100 plantlings | Mass, dry, sprout, + % to control [2, 12]: 28% | Mass, wet, root [2, 12]: 7.46 g/100 plantlings | Mass, wet, root, + % to control [2, 12]: 16% | Mass, wet, sprout [2, 12]: 7.03 g/100 plantlings | Mass, wet, sprout, + % to control [2, 12]: 24% | Length, root [2, 13]: 5.9 cm | Length, root, + % to control [2, 13]: 25.5% | Length, sprout [2, 13]: 4.0 cm | Mass, dry, root [2, 13]: 1.36 g/100 plantlings | Mass, dry, sprout [2, 13]: 1.13 g/100 plantlings | Mass, wet, root [2, 13]: 8.18 g/100 plantlings | Mass, wet, sprout [2, 13]: 7.82 g/100 plantlings | Length, root [2, 14]: 5.8 cm | Length, root, + % to control [2, 14]: 23% | Length, sprout [2, 14]: 3.8 cm | Length, sprout, + % to control [2, 14]: 15% | Mass, dry, root [2, 14]: 1.19 g/100 plantlings | Mass, dry, root, + % to control [2, 14]: 14% | Mass, dry, sprout [2, 14]: 1.06 g/100 plantlings | Mass, dry, sprout, + % to control [2, 14]: 23% | Mass, wet, root [2, 14]: 7.39 g/100 plantlings | Mass, wet, root, + % to control [2, 14]: 15% | Mass, wet, sprout [2, 14]: 6.99 g/100 plantlings | Mass, wet, sprout, + % to control [2, 14]: 23%
